We go through one compound from patent US11998008B2, “Pesticides and methods of controlling pests” (The State of Israel, Ministry of Agriculture & Rural …, priority 2017, dated 2024).

For one assay, the system named is P. digitatum. The assay is described as follows: Fungicidal activity assay on PDA in sealed Petri dish (growth inhibition and mortality). The class given is cell-based, Penicillium digitatum. The note with it: Penicillium digitatum, NA + number = still viable in the highest concentration tested (given as >), read-out: M - Mortality, minimal concentration that killed the fungus.

Assay [1] relates to Fusarium oxysporum f sp. radicis-lycopersici (Forl). The assay is described as follows: Effect on Forl in loam soil in buckets, applied by irrigation system. The class given is in vivo. The note with it: open and close conditions, except depth 30 cm at the lowest concentration in close condition. The procedure:
The activity of trans-2-octenal was examined against phytopathogenic fungi and weeds. The experiment was performed in large buckets (110 L), which bottoms were removed, and therefore the loam in the bucket was continuous with the ground. The soil was inoculated one day prior the application of the compound. Soil inoculation was performed as follows: spores of Fusarium oxysporum f sp. radicis-cucumerinum (FORC) were collected from culture plates and 25 mL of spore suspension at concentration of 9×10^5 was mixed with 10 L of tap water and then poured on the soil of each bucket. […] Half of the buckets were sealed with nylon while the other half remained open. Five days later, soil samples from three different depths (10, 20, and 30 cm) were taken from each bucket for fungal isolation and determination of fungal survival. […] After 3 days, the number of colonies was counted. […] Similar results were obtained at close condition, except at depth 30 cm at concentration of 62.5 ppm.
The experiment was repeated with the following modifications: different phytopathogenic fungus—Fusarium oxysporum f sp. radicis-lycopersici (Forl), lower concentrations—31.25, 62.5, and 93.75 ppm, and the application of the compound was done using the irrigation system.

`CCCCC/C=C/C=O` [trans-2-octenal]: the MFC in the assay on P. digitatum came to 12.5 µg/mL. Besides, the “concentration at which elimination of Forl was achieved” value in assay [1] was found to be 31.25 ppm.
